22 compounds from patent US8497262B2, “Therapeutic pyrazolonaphthyridine derivatives” (Dart NeuroScience (Cayman) Ltd, priority 2007, dated 2013) can be followed below.

In experiment [1] the target is GABAA central benzodiazepine receptor. Briefly: Benzodiazepine binding assay ((3H)-flunitrazepam displacement). The settings on record: read-out: BZ binding assay (IC50); rat whole brain (except cerebellum) membranes, 1 nM (3H)-flunitrazepam, 3-concentration dose response curve.
For a further experiment, the system named is GABAA receptors. Briefly: Electrophysiology assay (two-electrode voltage clamp, Xenopus oocytes expressing GABAA receptors). The settings on record: positive (Pos) or negative (Neg) modulation of GABA EC10 current at a screening concentration of 10 μM; receptor subtype not stated. In kind it is cell-based. Here is the method: The modulation of GABAA function is determined by changes in current as determined in an electrophysiology assay, as is detailed below.
mRNA was prepared from lyophilized plasmid pellets containing cDNA inserts encoding the specific GABAA receptor subunit. cDNAs encoding the α2, α3, and γ3 subunits were subcloned into pBluescript, SK^−. cDNAs encoding the α1 and α5 subunits were subcloned into prC while cDNA encoding the β2 subunit was subcloned into pcDNA1. The cDNA construct encoding the γ2s subunit is in the pGH19 expression construct. Overnight cultures of transformed DH5a bacterial cells were performed to grow sufficient quantities for maxiprep isolation of the plasmid cDNA. The resulting plasmid cDNA was linearized by digestion with an appropriate restriction enzyme that cleaves distal to the cDNA insert (XbaI for α1,2, β2, and γ3 or NotI for α3,5 and γ2, respectively). Following digestion, plasmid cDNA was treated with proteinase K and extracted with phenol/chloroform/isoamyl alcohol, followed by ethanol precipitation. cDNA quality was assessed by agarose-gel electrophoresis (1.5% agarose gel). Samples were stored at −20° C. until use. In vitro transcription was performed with T7 RNA polymerase. mRNA was then stored at −80° C. until use. Plasmids were linearized with appropriate restriction enzymes before in vitro transcription using the Message Machine kit (Ambion, Austin, Tex.).
GABAA receptor expression in Xenopus oocytes: Following 45 min of 0.15% Tricaine anesthesia, an ovarian section containing the follicular oocytes was removed from the frog through a lateral abdominal incision. Oocytes were immediately placed in a calcium-free solution (NaCl 96 mM, MgCl2 1 mM, KCl 2 mM, Hepes 50 mM, pyruvate 2.5 mM, gentamycin 100 μg/mL, penicillin-streptomycin 50 U/mL, pH 7.4). Following 1.5-2 hour incubation in 0.2% collagenase (type II, Sigma Chemical Co., St. Louis, Mo.) at room temperature, individual Dumont stage V and VI oocytes were transferred to an incubator and maintained overnight in Barth's solution (NaCl 84 mM, NaHCO3 2.4 mM, MgSO4 0.82 mM, KCl 1 mM, Ca(NO3)2 0.33 mM, CaCl2 0.41 mM, Tris/HCl 7.5 mM, pyruvate 2.5 mM, gentamycin 50 μg/mL, penicillin-streptomycin, 100 units/mL, pH 7.4) at 18-20° C. and used for experiments 1-5 days post-injection. Oocytes were injected solution using an electronic microinjector (Drummond, Broomall, Pa.) with […] of RNA containing 0.3-0.5 ng of each subunit RNA in a 1:1:1 ratio. The injected oocytes were used for experiments after 1-5 days of incubation in Barth's solution at 18-20° C.
Measurements of ion currents from oocytes expressing GABAA receptors were performed using a Warner two-electrode voltage-clamp amplifier (Warner Instruments, Inc., Foster City, Calif.) (Park-Chung, M., et al. (1999) Brain Res. 830: 72-87 incorporated herein in its entirety). Microelectrodes were fabricated from borosilicate glass capillaries with a programmed pipette puller (Sutter Instrument Co., CA). Microelectrode resistance was 1-3 MΩ when filled with 3 M KCl. The oocyte recording chamber was continuously perfused with Ringer solution. Oocytes were clamped at a holding potential of −70 mV during data acquisition. The membrane current was filtered at 10 Hz and sampled at 100 Hz. Compounds were applied by a gravity-driven external perfusion system. The working volume of the recording chamber was 30 μL and the rate of the perfusion was approximately 50 μL/sec. Compound application was 10-20 sec followed by a 90 sec wash. Data acquisition and external perfusion was computer controlled by custom-developed software. All experiments were performed at room temperature (22-24° C.). Dose-response data from each oocyte were fitted to the Hill equation by non-linear regression using the equation: IGABA=Emax/(1+(EC50/c)^n^H) Emax is the maximum response, EC50 is the concentration producing 50% of the maximal response, nH is the Hill coefficient and c is the concentration of agonist. […]
For orientation: Two-electrode voltage clamp holds a large cell at a set potential and records current.

With `O=c1c2c[nH]c3ccc(N4CCCNCC4)nc3c-2nn1-c1ccccc1` [6h, 8-[1,4]-Diazepan-1-yl-2-phenyl-2,5-dihydro-pyrazolo[4,3-c][1,5]naphthyridin-3-one], the half-maximal inhibitory concentration (IC50) in experiment [1] was less than 1 µM.

As to `CC1CN(c2ccc3[nH]cc4c(=O)n(-c5ccccn5)nc-4c3n2)CCN1` (stereo not shown) [6q, 8-(3-Methyl-piperazin-1-yl)-2-pyridin-2-yl-2,5-dihydro-pyrazolo[4,3-c][1,5]naphthyridin-3-one], the EP result in the experiment with GABAA receptors is given as “Pos”. In experiment [1], the IC50 is less than 1 µM. On to `O=c1c2c[nH]c3ccc(N4CCCC4)nc3c-2nn1-c1ccccc1` [6k, 2-Phenyl-8-pyrrolidin-1-yl-2,5-dihydro-pyrazolo[4,3-c][1,5]naphthyridin-3-one], for which the IC50 in experiment [1] was less than 0.001 µM. In the case of `O=c1c2c[nH]c3ccc(N4CCN(c5ccc(F)cc5)CC4)nc3c-2nn1-c1ccccc1` [6g, 8-[4-(4-Fluoro-phenyl)-piperazin-1-yl]-2-phenyl-2,5-dihydro-pyrazolo[4,3-c][1,5]naphthyridin-3-one], the IC50 in experiment [1] was less than 1 µM.

For the compound `O=c1c2c[nH]c3ccc(N4CCC(O)CC4)nc3c-2nn1-c1ccccn1` [6r], the half-inhibitory concentration (IC50) in experiment [1] was less than 0.001 µM. For the compound `O=c1c2c[nH]c3ccc(N4CCOCC4)nc3c-2nn1-c1ccccn1` [6o, 8-Morpholin-4-yl-2-pyridin-2-yl-2,5-dihydro-pyrazolo[4,3-c][1,5]naphthyridin-3-one], the IC50 in experiment [1] was less than 1 µM. Still for that read-out and setting: under `CN1CCCN(c2ccc3[nH]cc4c(=O)n(-c5ccccn5)nc-4c3n2)CC1` [6p, 8-(4-Methyl-[1,4]diazepan-1-yl)-2-pyridin-2-yl-2,5-dihydro-pyrazolo[4,3-c][1,5]naphthyridin-3-one] stands less than 1 µM.

`COc1ccc(-n2nc3c4nc(N5CCN(C)CC5)ccc4[nH]cc-3c2=O)cc1` [6t, 2-(4-Methoxy-phenyl)-8-(4-methyl-piperazin-1-yl)-2,5-dihydro-pyrazolo[4,3-c][1,5]naphthyridin-3-one]: the EP result in the experiment on GABAA receptors was “Neg”. Also, in experiment [1], the IC50 is less than 0.001 µM. On the same counts, the results for `O=c1c2c[nH]c3cc(N4CCNCC4)ncc3c-2nn1-c1ccccc1` [compound 14, 2-Phenyl-7-(piperazin-1-yl)-2,5-dihydro-pyrazolo[4,3-c][1,6]naphthyridin-3-one] are “Neg” and more than 1 µM.

For the compound `O=c1c2c[nH]c3c(N4CCNCC4)nccc3c-2nn1-c1ccccc1` [compound 17, 2-Phenyl-6-(piperazin-1-yl)-2,5-dihydro-pyrazolo[4,3-c][1,7]naphthyridin-3-one], the IC50 in experiment [1] was more than 1 µM.

Take `O=c1c2c[nH]c3ccc(N4CCC(O)CC4)nc3c-2nn1-c1ccccc1` [6d, 8-(4-Hydroxy-piperidin-1-yl)-2-phenyl-2,5-dihydro-pyrazolo[4,3-c][1,5]naphthyridin-3-one]: the concentration for half-maximal inhibition (IC50) in experiment [1] was less than 0.001 µM. For `O=c1c2c[nH]c3ccc(N4CCCC(O)C4)nc3c-2nn1-c1ccccc1` (stereo not shown) [6f, 8-(3-Hydroxy-piperidin-1-yl)-2-phenyl-2,5-dihydro-pyrazolo[4,3-c][1,5]naphthyridin-3-one], the IC50 in experiment [1] is less than 1 µM. Regarding `O=c1c2c[nH]c3ccc(N4CCOCC4)nc3c-2nn1-c1ccccc1` [6c, 8-Morpholin-4-yl-2-phenyl-2,5-dihydro-pyrazolo[4,3-c][1,5]naphthyridin-3-one], the EP result in the experiment on GABAA receptors is recorded as “Neg”. In addition, the IC50 in experiment [1] is less than 0.001 µM. On the same counts, the results for `O=c1c2c[nH]c3ccc(N4CCN(c5ccccc5)CC4)nc3c-2nn1-c1ccccc1` [6l, 2-Phenyl-8-(4-phenyl-piperazin-1-yl)-2,5-dihydro-pyrazolo[4,3-c][1,5]naphthyridin-3-one] are “Pos” and less than 1 µM. Take `O=c1c2c[nH]c3ccc(N4CCNCC4)nc3c-2nn1-c1ccccn1` [6s, 8-piperazin-1-yl-2-pyridin-2-yl-2,5-dihydro-pyrazolo[4,3-c][1,5]naphthyridin-3-one]: in the experiment with GABAA receptors, the EP result is “Pos”. In addition, the IC50 in experiment [1] was less than 1 µM. With `CC1CN(c2ccc3[nH]cc4c(=O)n(-c5ccccc5)nc-4c3n2)CC(C)O1` (stereo not shown) [6m, 8-(2,6-Dimethyl-morpholin-4-yl)-2-phenyl-2,5-dihydro-pyrazolo[4,3-c][1,5]naphthyridin-3-one], in the experiment on GABAA receptors, the EP result is given as “Pos”. Further, the IC50 in experiment [1] is less than 1 µM.

As for `O=c1c2c[nH]c3ccc(N4CCNCC4)nc3c-2nn1-c1ccccc1` [6a, 2-Phenyl-8-(piperazin-1-yl)-2,5-dihydro-pyrazolo[4,3-c][1,5]naphthyridin-3-one], the EP result in the experiment with GABAA receptors is “Neg”. The IC50 in experiment [1] is less than 1 µM.

As to `CN1CCN(c2ccc3[nH]cc4c(=O)n(-c5ccccc5)nc-4c3n2)CC1` [6b, 8-(4-Methyl-piperazin-1-yl)-2-phenyl-2,5-dihydro-pyrazolo[4,3-c]-[1,5]naphthyridin-3-one], the EP result in the experiment with GABAA receptors was “Neg”. Further, the IC50 in experiment [1] was less than 1 µM. Regarding `O=C1CN(c2ccc3[nH]cc4c(=O)n(-c5ccccc5)nc-4c3n2)CCN1` [6j, 8-(3-Oxo-piperazin-1-yl)-2-phenyl-2,5-dihydro-pyrazolo[4,3-c][1,5]naphthyridin-3-one], the concentration for half-maximal inhibition (IC50) in experiment [1] is less than 1 µM.

For the compound `CN1CCN(c2ccc3[nH]cc4c(=O)n(-c5ccccn5)nc-4c3n2)CC1` [6n, 8-(4-Methyl-piperazin-1-yl)-2-pyridin-2-yl-2,5-dihydro-pyrazolo[4,3-c][1,5]naphthyridin-3-one], the IC50 in experiment [1] is less than 1 µM. `O=c1c2c[nH]c3ccc(N4CCCC(CO)C4)nc3c-2nn1-c1ccccc1` (stereo not shown) [6i, 8-(3-Hydroxymethyl-piperidin-1-yl)-2-phenyl-2,5-dihydro-pyrazolo[4,3-c][1,5]naphthyridin-3-one]: the IC50 in experiment [1] is less than 0.001 µM. Take `CC1CN(c2ccc3[nH]cc4c(=O)n(-c5ccccc5)nc-4c3n2)CCN1` (stereo not shown) [6e, 8-(3-Methyl-piperazin-1-yl)-2-phenyl-2,5-dihydro-pyrazolo[4,3-c][1,5]naphthyridin-3-one]: the IC50 in experiment [1] was less than 1 µM.

The IC50 is the midpoint of a concentration-inhibition curve.
